Laboratory results: ChEMBL document CHEMBL5252606, “Isolation and Characterization of Anti-Mycobacterial Natural Products from a Petrosia sp. Marine Sponge” (J Nat Prod, 2023)
≈ marks a conversion by molar mass, not a printed value. Calls of active or inactive are those of the source. The calls are words filed in the database; no cut-off is given here.

Assays:
[1] = tested on: Mycobacterium tuberculosis; experiment: Antitubercular activity against Mycobacterium tuberculosis H37Rv assessed as inhibition of bacterial growth at 25 ug/ml by alamar blue assay; assay type: functional, organism-based; details: dose 25.0 µg/ml
[2] = tested on: Mycobacterium tuberculosis; experiment: Antitubercular activity against Mycobacterium tuberculosis H37Rv assessed as inhibition of bacterial growth by alamar blue assay; assay type: functional
[3] = tested on: Mycobacterium tuberculosis; experiment: Antitubercular activity against Mycobacterium tuberculosis expressing luxCDABE operon assessed as inhibition of bacterial growth under hypoxic conditions by low oxygen recovery assay; assay type: functional
[4] = tested on: A549; experiment: Cytotoxicity against human A549 cells; assay type: functional, cell-based
[5] = tested on: HCT-8; experiment: Cytotoxicity against human HCT-8 cells; assay type: functional, cell-based
[6] = tested on: MCF7; experiment: Cytotoxicity against human MCF7 cells; assay type: functional, cell-based
[7] = tested on: P388; experiment: Cytotoxicity against mouse P388 cells; assay type: functional, cell-based
[8] = tested on: HeLa; experiment: Cytotoxicity against human HeLa cells; assay type: functional, cell-based
[9] = tested on: Mycobacterium avium; experiment: Antitubercular activity against Mycobacterium avium ATCC 15769 assessed as inhibition of bacterial growth incubated for 24 hrs by resazurin based fluorescence assay; assay type: functional, organism-based
[10] = Cytotoxicity against African green monkey Vero cells assessed as inhibition of cell growth incubated for 3 days by resazurin based fluorescence assay; assay type: toxicity; details: African green monkey (Chlorocebus sabaeus)
[11] = tested on: Mycobacteroides abscessus; experiment: Antitubercular activity against Mycobacterium abscessus ATCC 19977 assessed as inhibition of bacterial growth incubated for 4 hrs by resazurin based fluorescence assay; assay type: functional, organism-based

Compound	Activity [1]	MIC [2] [µM]	MIC [3] [µM]	further results
COc1ccc2c(c1)C[C@H]1[C@]3(C)CC[C@@H]4[C@](C)(CCC[C@]4(C)C(=O)O)[C@H]3CC[C@]1(C)O2	inactive	–	–	–
CO[C@H]1/C=C/O[C@@]2(C)Oc3c(C)c(O)c4c(O)c(c(/C=N/N5CCN(C)CC5)c(O)c4c3C2=O)NC(=O)/C(C)=C\C=C\[C@H](C)[C@H](O)[C@@H](C)[C@@H](O)[C@@H](C)[C@H](OC(C)=O)[C@@H]1C [RIFAMPIN]	–	0.04 (≈ 0.0329 µg/mL)	0.09 (≈ 0.0741 µg/mL)	–
COc1nc2ccc(Br)cc2cc1[C@@H](c1ccccc1)[C@@](O)(CCN(C)C)c1cccc2ccccc12 [BEDAQUILINE]	–	0.03 (≈ 0.0167 µg/mL)	0.1 (≈ 0.0556 µg/mL)	–
C[C@]12CCC[C@](C)(C=O)[C@@H]1CC[C@]1(C)[C@@H]2CC[C@]2(C)Oc3ccc(O)cc3C[C@@H]12	inactive	–	–	–
COc1ccc2c(c1)C[C@H]1[C@]3(C)CC[C@H]4[C@@]5(C)CCC[C@]4(CO[C@@H]5O)[C@H]3CC[C@]1(C)O2	inactive	–	–	–
CCO[C@@H]1OC[C@]23CCC[C@]1(C)[C@@H]2CC[C@]1(C)[C@@H]3CC[C@]2(C)Oc3ccc(OC)cc3C[C@@H]12	inactive	–	–	–
COc1ccc2c(c1)C[C@H]1[C@]3(C)CC[C@@H]4[C@]5(CCC[C@@]4(C)C(=O)OC5)[C@H]3CC[C@]1(C)O2	inactive	–	–	–
NNC(=O)c1ccncc1 [ISONIAZID]	–	0.2 (≈ 0.0274 µg/mL)	> 128	–
COc1ccc2c(c1)C[C@H]1[C@]3(C)CC[C@H]4[C@@]5(C)CCC[C@]4(CO[C@H]5O)[C@H]3CC[C@]1(C)O2	inactive	–	–	–
C#CC(O)/C=C/CCCCCCCCC/C=C\CCCCCCCCC/C=C/C(O)C#C (configuration not stated)	–	1.4 (≈ 0.617 µg/mL)	1 (≈ 0.441 µg/mL)	IC50 [4]: 200 nM; IC50 [5]: 200 nM; IC50 [6]: 200 nM; IC50 [7]: 200 nM; IC50 [8]: 200 nM; Activity [9]: inactive; IC50 at 3 days [10]: 400 nM; Activity [11]: inactive
CC(=O)NC[C@H]1CN(c2ccc(N3CCOCC3)c(F)c2)C(=O)O1 [LINEZOLID]	–	1 (≈ 0.337 µg/mL)	1.7 (≈ 0.573 µg/mL)	–
O=[N+]([O-])c1cn2c(n1)OC[C@@H](OCc1ccc(OC(F)(F)F)cc1)C2 [PRETOMANID]	–	0.2 (≈ 0.0719 µg/mL)	2 (≈ 0.719 µg/mL)	–
C[C@]12CCC[C@](C)(C(=O)O)[C@@H]1CC[C@]1(C)[C@@H]2CC[C@]2(C)Oc3ccc(O)cc3C[C@@H]12	inactive	–	–	–
